As a reminder, the inhibition is the percentage by which the read-out fell short of the control. For orientation: IC50 means the concentration at which inhibition is half-maximal.

Assay [1] has as its system endothelial (HUVEC) cells. As to the kind of experiment: Apoptosis assay (Annexin V-FITC/PI), HUVEC. Format: cell-based. To be noted: IC50 concentration, 72 h (FIG. 2B). As to the method: The level of apoptosis in endothelial (HUVEC) and breast cancer cells (MDA-MB-231) was detected by Annexin V-FITC Apoptosis Detection Kit (ref 556547, BD Biosciences, France) according to the manufacturer's instructions. Briefly, HUVEC and MDA-MB-231 cells were treated separately with DMSO (control) and the compounds of the invention at the concentration corresponding to the IC50, obtained by the proliferation assay, for 72 h. After treatment, all cell including both detached and attached cells were collected, centrifugated at 14000 rpm for 5 min and the apoptotic cells were detected by staining with Annexin V-FITC and (propidium iodide) PI. The cells were resuspended in 100 μl Annexin V binding buffer (10 mM Hepes/NaOH, pH 7.4, 140 mM NaCl, […]) containing 5 μl of Annexin V-FITC and 5 μl of PI (propidium iodide). Samples were gently mixed and incubated for 2 h on ice and in the dark. Viable and apoptotic cell were detected by flow citometry (FACS Calibur Becton Dickinson, France). Apoptotic cells include both the early apoptotic portion (Annexin V-positive) and the late apoptotic portion (Annexin V- and PI-positive). Staurosporine is used as a positive control of apoptosis induction.

Assay [2] has as its system Panc-10.5. The assay can be described thus: WST-1 proliferation assay, Panc-10.5. Format: cell-based. To be noted: Homo sapiens; for inhibition at 0.1 µM: PANC - 10.5, 0.1 μM; for inhibition at 0.5 µM: PANC - 10.5, 0.5 μM; for inhibition at 1 µM: PANC - 10.5, 1 μM; for IC50: Pancreas Panc-10.5, 72 h, read-out: Anti-proliferative activity IC50 (μM) ± SD. An excerpt: Several cancer cell lines were used: breast cancer cells (MDA-MB-231 (ATTCC® Number HTB-26™), MDA-MB-436 (ATTCC® Number HTB-130™), MDA-MB-438, BT-474 (ATTCC® Number HTB-20™)); cervical cancer cells (HeLa (ATTCC® Number CCL-2™)); colon cancer cells (HCT-116 (ATTCC® Number CCL-247™) and HT-29 (ATTCC® Number HTB-38™)); osteosarcoma cells (U2OS (ATTCC® Number HTB-96™)); pancreas cancer cells (MIA PaCa-2 (ATTCC® Number CRL-1420™) and Panc-10.5 (ATTCC® Number CRL-2547™)); prostate cancer cells (PC-3 (ATTCC® Number CRL-1435™) and LNCaP (ATTCC® Number CRL-1740™)); brain cancer cells (U87 glioblastoma (ATTCC® Number HTB-14™) and SH-SYSY neuroblastoma (ATTCC® Number CRL-2266™)).
All the cancer cell lines were maintained in cultured in DMEM GlutaMAX™ (GIBCO Invitrogen, France, cat no 31966047) enhanced with 10% foetal bovine serum (GIBCO Invitrogen, France, cat no 10270-106) and 1% penicillin G/streptomycin (GIBCO Invitrogen, France, cat no 15140-122). Only Panc-10.5 cells were cultivated in RPMI 1640 medium (Gibco) supplemented with 2 mM L-glutamine, 1.5 g/L sodium bicarbonate, 4.5 g/L glucose, 10 mM HEPES, 1 mM sodium pyruvate, 10 Units/ml human insulin, […] (SVF): 15% (75 ml in 500 ml of medium).
Cells were grown as subconfluent monolayer and cultured in 75 cm^2 flasks at 37° C., 5% CO2 in a humidified atmosphere, and medium was changed every two days. Only cells from passages 2-6 were used for the experiments.
After observation of cells under the microscope, old media were removed and the adherent cells washed gently twice with PBS (Phosphate Buffer Saline, —Ca^2+, —Mg^2+, Lonza cat no: 17-512F/12). All cells were detached with 3 ml of trypsin/EDTA (chelator of calcium and magnesium ions) (Lonza), incubated for 5 min at 37° C., and examined using a microscope to ensure that the cells were detached and floating. Then, 3 ml TNS (Trypsin Neutralizing Solution, Lonza, France, cat no CC-5002) or of culture medium were added to inactivate the trypsin, and the cell suspension was transferred in a falcon and centrifuged for 7 min at 1400 rpm. The supernatant was removed and the cell pellet resuspended in […] of culture medium. 50 μl of this solution were transferred in 20 μl of isotonic solution and the cells were counted by count cellular (Beckman Coulter). At day 0, 200 μl of cellular suspension (3.10^3 cells/well for the HUVEC cells, breast cancer cells (MDA-MB-231 1.10^4 cells/well, MDA-MB-436 1.10^4 cells/well, MDA-MB-438 2.10^4 cells/well, BT-474 2.5.10^4 cells/well); cervical cancer cells (HeLa 5.000 cells/well); colon cancer cells (HCT-116 5.10^3 cells/well, HCT-29 1.1.10^4 cells/well); osteosarcoma cells (U2OS 8.10^3 cells/well); pancreas cancer cells (MIA PaCa-2 5.10^3 cells/well, Panc-10.5 1.5.10^4 cells/well); prostate cancer cells (PC-3 4.10^3 cells/well, LNCaP 2.10^4 cells/well); brain cancer cells (U87 5.10^3 cells/well, SH-SYSY 8.10^4 cells/well)) were then plated on 96 well plates and incubated at 37° C. in a humidified atmosphere of 5% CO2 for 24 h.
At day 1, the compounds 1 or 2 of the invention were added at increasing concentrations (0.1-10 μM) in the wells and plates were incubated at 37° C. in a humidified atmosphere of 5% CO2 for 72 h.
The cell proliferation WST-1 assay is a colorimetric assay for the quantification of cell proliferation and viability, based on the enzymatic cleavage of the tetrazolium salt WST-1 added to the culture medium, to a water soluble colored formazan dye, detected by absorbance at 450 nm, by mitochondrial succinate-tetrazolium reductase in viable cells. An augmentation in enzyme activity will then lead to an increase in the amount of formazan dye formed, which directly correlates to the number of metabolically active cells in the culture.
After an incubation period of 72 h, at day 4, were prepared the 19 ml medium with reagent WST-1 1 ml ([…]). The medium was removed from the 96 microplate and 200 μl of solution WST-1/medium were added for each well. […]
(Tetrazolium assays rely on reduction of a dye to a coloured formazan, in cell work by metabolically active cells.)

For assay [3], the system named is breast cancer cells (MDA-MB-231). The assay can be described thus: Motility assay (videomicroscopy), MDA-MB-231. Format: cell-based, Human. As to conditions: IC50 concentration, 24 h (FIG. 6). As to the method: The dishes were placed in an enclosed warming incubator on the motorized stage of a computer-controlled Eclipse Ti inverted microscope (Nikon Instruments Europe) equipped with a CCD Cool-SNAP HQ2 camera (Roper Scientific, USA) and a PC workstation. The incubator allowed samples to be kept at 37° C. in a humidified atmosphere containing 5% CO2, 95% air. Phase images were recorded at 100× every 5 min simultaneously over several fields from 0 till 24 h (288 frames). Cell motility was tracked and analyzed for at least 25 cells in each field over three independent experiments. The total distance of migration and the speed of migration were analyzed. The degree of persistence of movement was defined as the ratio between the linear distance and the total distance covered by the cells. Image acquisition and analyses were carried out using Metamorph 7 software (Universal Imaging).

“Also recorded” adds a separate entry of the source.

For the molecule `Cc1ccc(-c2nc3ccccc3[nH]2)cc1NC(=S)NC(=O)c1ccc2c(c1)OCCO2` [Compound 1, N-[5-(1H-benzimidazol-2-yl)-2-methylphenyl]-N′-(2,3-dihydro-1,4-benzodioxin-6-ylcarbonyl)thiourea], the “induction of apoptosis in endothelial cells” value in assay [1] is given as “induced the apoptosis; also recorded: induction of apoptosis”. In addition, in assay [2], the inhibition at 0.1 µM amounted to 21%, testing at 0.5 µM gave an inhibition of 44%, the inhibition at 1 µM came to 56% and the IC50 was found to be 1 µM. Moreover, the “motility (migration speed) of cancer cells” value in assay [3] was “significant anti-migratory effect”.

As for `O=C(NC(=S)Nc1cccc(-c2nc3ccccc3[nH]2)c1)c1ccc2c(c1)OCCO2` [Compound 2, N-[3-(1H-benzimidazol-2-yl)phenyl]-N′-(2,3-dihydro-1,4-benzodioxin-6-ylcarbonyl)thiourea], the “induction of apoptosis in endothelial cells” value in assay [1] was “induced the apoptosis; also recorded: induction of apoptosis”. In assay [2], testing at 0.1 µM gave an inhibition of 51%, the inhibition at 0.5 µM was found to be 62%, the inhibition at 1 µM came to 65% and the IC50 was found to be 0.1 ± 0.09 µM. Besides, the “motility (migration speed) of cancer cells” value in assay [3] is on record as “significant anti-migratory effect”.
